Data taken from patent publication US20250082624A1, “METHODS OF TREATING COGNITIVE IMPAIRMENT” (NeuroTherapia, Inc., priority 2023, published 2025).
Where “and” joins values, the source holds several entries; their conditions need not be identical. Equal entries are not always repeated. Entries after “also recorded” stand apart in the source; their conditions may differ.

How the values were obtained:
AD cohort = test: Cognitive testing ADAS-COG in AD cohort; type: in vivo, human; conditions: 90 mg QD 7 days
Source text: (§1) Methods: All study procedures were approved by the IRB, and informed consent was obtained. Three cohorts of volunteers 45-80 years of age with well-controlled comorbidities (NOAD) and one cohort of AD patients diagnosed with cognitive impairment consistent with prodromal AD per International Working Group criteria or mild AD per National Institute on Aging—Alzheimer's Association criteria (n=6 active, 2 placebo per cohort) were enrolled. Participants were admitted to the study site for the duration of the dosing and returned 7-12 days after the last dose for a safety visit. Participants received NTRX-07 (10, 30, or 90 mg) or a placebo in a double-blinded randomization orally once daily for seven days. Subjects were assessed for changes in vital signs, including maneuvers to induce lightheadedness, electrocardiograms, 24-hour electroencephalograms (EEG), and safety laboratory studies. The second cohort returned and received a single repeat dose after a standard high-fat meal. The AD cohort also underwent cognitive testing and had blood samples for biomarkers drawn. Subjects had PK sampling done after the first and final dose of the study drug. An independent safety review committee conducted a blinded safety review of adverse events and plasma levels between each cohort.
(§2) Assessments: Subjects were assessed for changes in vital signs, orthostatic blood pressure, Romberg test, nystagmus, timed get up and go, electrocardiograms, electroencephalograms (EEG), and laboratory studies. Subjective questionnaires of drug effects (ARCI-M) were administered. Cohort B returned and received a single repeat dose after a standard high-fat meal. The AD cohort also underwent cognitive testing (MMSE, ADAS-COG, MOCA) and had blood samples for biomarkers drawn.
(§3) Exploratory endpoints include cognitive testing and potential plasma biomarkers of inflammation. The small group size (6 on treatment, 2 placebo) precludes statistical analysis, but the goals were to gain insights for future study design. Exploratory endpoints include: • MMSE, MOCA & ADAS-COG • IL-12p70, IL-10, IL-4, IL-5, INFg, IL-6, IL-8, IL-22, TNFa, IL-10, hCRP, Chitinase-3, TREM-2, IL-2, Neurogranin, Total Tau, AB42, AB40, NF-LIGHT, pTau-181

[1] = tested on: plasma biomarkers of inflammation; test: Plasma biomarkers of inflammation and AD in AD cohort; type: in vivo, human; conditions: for AB40 Median / AB42 Median / Chitinase-3 Median / IL-1β Median / IL-2 Median / IL-4 Median / IL-5 Median / IL-6 Median / IL-8 Median / IL-10 Median / IL-12p70 Median / IL-22 Median / INFg Median / NF-LIGHT Median / Neurogranin Median / TNFa Median / TREM-2 Median / Total Tau Median / hCRP Median / pTau-181 Median: plasma
Source text: as §1, §2
An informational letter was filed with the FDA to inform them of this study. The study was designed as follows: • 3 healthy cohorts (cohorts A-C) followed by AD cohort (cohort D) treated at MTD • 6 treated, 2 placebos in each cohort • Doses: 10, 30, 90 mg/treatment—latter doses can be adjusted based on PK assessment • In unit, 7 days of treatment • Monitor vertigo with various tests: (1) timed get-up and go, (2) Nystagmus test, (3) Romberg test, and (4) changes in orthostatic blood pressure (Day 1, 3 and 8) • Use 24 hr EEG monitoring for CNS safety assessment • Assess plasma biomarkers of inflammation and AD pre- and post-treatment in AD cohort • Assess changes on cognition post-treatment using MMSE and ADAS-cog • Fed/fasted study to determine food effects on PK as a subset of the Phase 1b
as §3

[2] = after 7 days of 90 mg QD, Day 8

SMILES: CC1(Cc2ccccc2)COc2cc(C(=O)N3CCCCC3)ccc21 (stereo not drawn) [NTRX-07, 3-benzyl-3-methyl-2,3-dihydrobenzofuran-6-carboxylic acid-piperidine amide]
- ADAS-COG Mean (StdDev) (AD cohort; Day 8): 12.72 (1.56)
- ADAS-COG (AD cohort; Day 8, individual subjects): 11.00 and 15.33 and 11.67 and 12.67 and 12.00 and 13.67
- ADAS-COG Mean (StdDev) (AD cohort; Day −2 (baseline)): 17.50 (2.83)
- ADAS-COG (AD cohort; Day −2 (baseline), individual subjects): 17.00 and 18.33 and 13.33 and 22.00 and 18.00 and 16.33
- ADAS-COG Mean (StdDev) (AD cohort; EOS Day 14-19): 13.17 (3.46)
- ADAS-COG (AD cohort; EOS Visit (Day 14-19), individual subjects): 9.33 and 19.33 and 11.00 and 12.00 and 13.00 and 14.33
- ADAS-COG trend (AD cohort; immediately post-treatment): Trend toward improvement
- Changes in plasma biomarkers ([1]; 90 mg QD 7 days): No significant changes in biomarkers or plasma biomarkers; also recorded: no consistent changes
- AB40 Median ([1]; 90 mg QD, Day 1 (baseline)): 232.84 pg/mL
- AB42 Median ([1]; 90 mg QD, Day 1 (baseline)): 8.29 pg/mL
- Chitinase-3 Median ([1]; 90 mg QD, Day 1 (baseline)): 43668.33 pg/mL
- IL-1β Median ([1]; 90 mg QD, Day 1 (baseline)): 0.13 pg/mL
- IL-2 Median ([1]; 90 mg QD, Day 1 (baseline)): 0.16 pg/mL
- IL-4 Median ([1]; 90 mg QD, Day 1 (baseline)): 1.38 pg/mL
- IL-5 Median ([1]; 90 mg QD, Day 1 (baseline)): 0.17 pg/mL
- IL-6 Median ([1]; 90 mg QD, Day 1 (baseline)): 2.19 pg/mL
- IL-8 Median ([1]; 90 mg QD, Day 1 (baseline)): 7.65 pg/mL
- IL-10 Median ([1]; 90 mg QD, Day 1 (baseline)): 0.35 pg/mL
- IL-12p70 Median ([1]; 90 mg QD, Day 1 (baseline)): 0.34 pg/mL
- IL-22 Median ([1]; 90 mg QD, Day 1 (baseline)): 0.9 pg/mL
- INFg Median ([1]; 90 mg QD, Day 1 (baseline)): 0.08 pg/mL
- NF-LIGHT Median ([1]; 90 mg QD, Day 1 (baseline)): 18.24 pg/mL
- Neurogranin Median ([1]; 90 mg QD, Day 1 (baseline)): 671.19 pg/mL
- TNFa Median ([1]; 90 mg QD, Day 1 (baseline)): 0.69 pg/mL
- TREM-2 Median ([1]; 90 mg QD, Day 1 (baseline)): 38468.67 pg/mL
- Total Tau Median ([1]; 90 mg QD, Day 1 (baseline)): 2.07 pg/mL
- hCRP Median ([1]; 90 mg QD, Day 1 (baseline)): 4135.17 ng/mL
- pTau-181 Median ([1]; 90 mg QD, Day 1 (baseline)): 21.53 pg/ml
- AB40 Median [1, 2]: 226.52 pg/mL
- AB42 Median [1, 2]: 8.57 pg/mL
- Chitinase-3 Median [1, 2]: 40345.17 pg/mL
- IL-1β Median [1, 2]: 0.11 pg/mL
- IL-2 Median [1, 2]: 0 pg/mL
- IL-4 Median [1, 2]: 1.14 pg/mL
- IL-5 Median [1, 2]: 0.19 pg/mL
- IL-6 Median [1, 2]: 2.44 pg/mL
- IL-8 Median [1, 2]: 10.41 pg/mL
- IL-10 Median [1, 2]: 0.38 pg/mL
- IL-12p70 Median [1, 2]: 0.33 pg/mL
- IL-22 Median [1, 2]: 0.87 pg/mL
- INFg Median [1, 2]: 0.08 pg/mL
- NF-LIGHT Median [1, 2]: 18.49 pg/mL
- Neurogranin Median [1, 2]: 881.02 pg/mL
- TNFa Median [1, 2]: 0.83 pg/mL
- TREM-2 Median [1, 2]: 39576.17 pg/mL
- Total Tau Median [1, 2]: 2.03 pg/mL
- hCRP Median [1, 2]: 4211.88 ng/mL
- pTau-181 Median [1, 2]: 20.16 pg/ml
